The values that follow come from patent US7312188B2, “Peptide derivatives having β-secretase inhibitory activity” (priority 2003, dated 2007).

The experiment concerns the target T1, recombinant human BACE-1 (rhBACE-1) (Homo sapiens, UniProt P56817).
T1 construct: expressed as only an extracellular region (amino acid 1-460 residues) of recombinant human β-secretase; His tag (C); purchased R&D systems (Minneapolis, Minn.); host or cells: murine myeloma cell line NS0
Briefly: BACE1 inhibitory activity, reverse phase HPLC quantitation of N-terminal fragment of fluorogenic substrate. Format: biochemical. In a few lines: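 rhBACE-1 ectodomain (residues 1-460, C-terminal His tag, NS0-expressed) in MES buffer pH 5.0 with inhibitor (diluted in DMSO, 100 μM solution) and MCA/DNP fluorogenic peptide (250 μM stock), 60 min at 37 °C, TCA stop. N-terminal fragment quantified by reverse-phase HPLC fluorescence (Ex 328/Em 393 nm); inhibition % derived.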

[1] abbreviates: 1 μL of inhibitor solution in DMSO (100 μM) in 50 μL reaction, MES buffer pH 5.0, 37° C., 60 minutes.

Numbered stars: 1 amine (or outer) side, 2 acyl side, 3 side chain; on linkers, the order of the positions; unused ones are H or OH. Square brackets hold non-standard residues; d marks the D form. Peptide text beside a SMILES is read from it. * marks the point of attachment. β3hPhe(2R-OH) = O=C([C@H](O)[C@H](Cc1ccccc1)N[*:1])[*:2]; Ala(4-thiazolyl) = N[C@@H](Cc1cscn1)C(=O)O; Benzoyl(4-COOH) = O=C(O)c1ccc(C(=O)*)cc1; 3Abz = Nc1cccc(C(=O)O)c1; 4Abz = Nc1ccc(C(=O)O)cc1; 2Abz = Nc1ccccc1C(=O)O; Dap = NC[C@H](N)C(=O)O

T1 sequence (P56817 22-460 limits assumed): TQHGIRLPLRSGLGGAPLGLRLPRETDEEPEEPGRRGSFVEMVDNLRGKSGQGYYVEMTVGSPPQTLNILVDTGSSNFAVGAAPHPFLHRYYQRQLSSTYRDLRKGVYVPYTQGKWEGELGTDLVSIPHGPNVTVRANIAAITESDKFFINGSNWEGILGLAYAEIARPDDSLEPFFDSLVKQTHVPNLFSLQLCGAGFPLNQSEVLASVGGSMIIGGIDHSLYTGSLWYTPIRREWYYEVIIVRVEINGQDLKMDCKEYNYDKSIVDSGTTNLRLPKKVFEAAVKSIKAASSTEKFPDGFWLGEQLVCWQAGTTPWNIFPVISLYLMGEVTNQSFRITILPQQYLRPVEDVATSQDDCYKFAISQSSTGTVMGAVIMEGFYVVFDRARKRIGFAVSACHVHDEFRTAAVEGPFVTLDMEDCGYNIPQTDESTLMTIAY

As to `CC(C)C[C@H](NC(=O)[C@@H](NC(=O)[C@@H](N)CCC(=O)O)C(C)C)C(=O)N[C@@H](Cc1ccccc1)[C@@H](O)C(=O)N[C@@H](CC(=O)O)C(=O)N[C@@H](C)C(=O)Nc1ccc(C(=O)O)cc1` [Example 93] (H-EVL[β3hPhe(2R-OH)]DA[4Abz]-OH), the inhibition at 2 µM under setting [1] worked out at 64.8%. Turning to `CC(C)C[C@H](NC(=O)[C@@H](NC(=O)[C@@H](N)CCC(=O)O)C(C)C)C(=O)N[C@@H](Cc1ccccc1)[C@@H](O)C(=O)Nc1cc(Cl)c(OCC(=O)O)c(Cl)c1` [Example 163], the inhibition at 2 µM under setting [1] stood at 88.3%.

Consider `CC(C)C[C@H](NC(=O)[C@@H](NC(=O)[C@@H](N)CNC(=O)c1ccc(C(=O)O)cc1)C(C)C)C(=O)N[C@@H](Cc1ccccc1)[C@@H](O)C(=O)N[C@@H](CC(=O)O)C(=O)N[C@@H](C)C(=O)N[C@@H](CCC(=O)O)C(=O)O` [Example 81] (H-[Dap](Benzoyl(4-COOH))VL[β3hPhe(2R-OH)]DAE-OH), for which the inhibition at 2 µM under setting [1] turned out to be 82.9%. On to `CC(C)[C@H](NC(=O)[C@@H](N)CCC(=O)O)C(=O)N[C@@H](CCc1ccccc1)C(=O)N[C@@H](Cc1ccccc1)[C@@H](O)C(=O)Nc1cccc(C(=O)O)c1` [Example 166], for which, under setting [1], the inhibition at 2 µM stood at 84.9%. Consider `CC(C)C[C@H](NC(=O)[C@@H](NC(=O)[C@@H](N)CNC(=O)c1ccco1)C(C)C)C(=O)N[C@@H](Cc1ccccc1)[C@@H](O)C(=O)Nc1cccc(C(=O)O)c1` [Example 174], for which, under setting [1], the inhibition at 2 µM was found to be 81.8%. Regarding `CC(C)C[C@H](NC(=O)[C@@H](NC(=O)[C@@H](N)CCC(=O)O)C(C)C)C(=O)N[C@@H](Cc1ccccc1)[C@@H](O)C(=O)N[C@@H](CC(=O)O)C(=O)N[C@@H](C)C(=O)Nc1ccccc1C(=O)O` [Example 87] (H-EVL[β3hPhe(2R-OH)]DA[2Abz]-OH), the inhibition at 100 µM (stock) under setting [1] was determined as 72.2%. As to `CC(C)C[C@H](NC(=O)[C@@H](NC(=O)[C@@H](N)CNC(=O)c1nnn[nH]1)C(C)C)C(=O)N[C@@H](Cc1ccccc1)[C@@H](O)C(=O)Nc1cc(C(=O)O)cc(C(=O)O)c1` [Example 127], the inhibition at 2 µM under setting [1] came out at 100%.

As to `CC(C)[C@H](NC(=O)[C@@H](NC(=O)[C@@H](N)CCC(=O)O)C(C)C)C(=O)N[C@@H](Cc1ccccc1)[C@@H](O)C(=O)N[C@@H](CC(=O)O)C(=O)N[C@@H](C)C(=O)N[C@@H](CCC(=O)O)C(=O)N[C@@H](Cc1ccccc1)C(=O)O` [Example 123] (H-EVV[β3hPhe(2R-OH)]DAEF-OH), under setting [1], the inhibition at 2 µM was found to be 61.4%. Still for that read-out and setting: in the case of `CCOC(=O)c1cccc(NC(=O)c2cccc(NC(=O)[C@H](O)[C@H](Cc3ccccc3)NC(=O)[C@H](CC(C)C)NC(=O)[C@@H](NC(=O)[C@@H](N)CCC(=O)O)C(C)C)c2)c1` [Example 72] it was 95%. Regarding “H-Glu-Val-Leu-Pns-Ala-Ala-Glu-Phe-OH (H-EVL[β3hPhe(2R-OH)]AAEF-OH; SMILES CC(C)C[C@H](NC(=O)[C@@H](NC(=O)[C@@H](N)CCC(=O)O)C(C)C)C(=O)N[C@@H](Cc1ccccc1)[C@@H](O)C(=O)N[C@@H](C)C(=O)N[C@@H](C)C(=O)N[C@@H](CCC(=O)O)C(=O)N[C@@H](Cc1ccccc1)C(=O)O) [Example 13]”, under setting [1], the “Activity (BACE1 inhibition %)” value came out at 53.71%.

`CCSC[C@H](NC(=O)[C@@H](NC(=O)[C@@H](N)CCC(=O)O)C(C)C)C(=O)N[C@@H](Cc1ccccc1)[C@@H](O)C(=O)Nc1cccc(C(=O)O)c1` [Example 132]: under setting [1], the inhibition at 2 µM came to 68.1%. Regarding `CC(C)[C@H](NC(=O)[C@@H](N)CCC(=O)O)C(=O)N[C@@H](Cc1cscn1)C(=O)N[C@@H](Cc1ccccc1)[C@@H](O)C(=O)N[C@@H](CC(=O)O)C(=O)N[C@@H](C)C(=O)N[C@@H](CCC(=O)O)C(=O)N[C@@H](Cc1ccccc1)C(=O)O` [Example 99] (H-EV[Ala(4-thiazolyl)][β3hPhe(2R-OH)]DAEF-OH), the inhibition at 2 µM under setting [1] amounted to 58%. The same measure, in the same setting: the same measure for `CSC[C@H](NC(=O)[C@@H](NC(=O)[C@@H](N)CCC(=O)O)C(C)C)C(=O)N[C@@H](Cc1ccccc1)[C@@H](O)C(=O)Nc1cccc(C(=O)O)c1` [Example 131]: 74.1%; for `CNC(=O)c1cc(NC(=O)[C@H](O)[C@H](Cc2ccccc2)NC(=O)[C@H](CC(C)C)NC(=O)[C@@H](NC(=O)[C@@H](N)CCC(=O)O)C(C)C)cc(C(=O)NC)c1` [Example 180]: 51.4%. Regarding “H-Glu-Val-Leu-Pns-Asp-Ala-Gly-Phe-OH [Example 44]”, the “Activity (BACE1 inhibition %)” value (pH 5, 100 µM) was 56.30%. With `CC(C)C[C@H](NC(=O)[C@@H](NC(=O)[C@@H](N)CCC(=O)O)C(C)C)C(=O)N[C@@H](Cc1ccccc1)[C@@H](O)C(=O)N[C@@H](CC(=O)O)C(=O)N[C@@H](C)C(=O)Nc1cccc(C(=O)O)c1` [Example 92] (H-EVL[β3hPhe(2R-OH)]DA[3Abz]-OH), the inhibition at 2 µM under setting [1] was 65.4%.

One may read the inhibition as the drop in the measured response relative to a control, in per cent.
